Assay results published in patent US20120316192A1, “SUBSTITUTED INDOLO [2,3-A] QUINOLIZINES” (priority 2011, published 2012).

Test system: HeLa cells
Assay: FACS analysis of the cell cycle (propidium iodide DNA content)
Type: cell-based, human
Details: 1 μM nocodazole, 24 h after treatment
Description: HeLa human cervical carcinoma cell line, the human breast cancer cell line MCF7, and the human colorectal carcinoma cell line SW480 were maintained in Dulbecco's Modified Eagle's medium (DMEM, PAA, Pasching Austria). The colorectal cell line HT29 was cultured in McCoy's 5A medium (PAA, Pasching, Austria). DMEM medium was supplemented with 10% fetal calf serum, sodium pyruvate, non-essential amino acids, penicillin and streptomycin, McCoy's 5A medium was supplemented with 10% fetal calf serum, penicillin and streptomycin. All cell lines were cultured at 37° C. in a 5% CO2 humidified atmosphere. Further, fluorescent activated cell sorting (FACS) was used successfully to analyze the cell cycle and mitotic arrest under the influence of indoloquinolizines. HeLa cells were fixed and stained for FACS analysis 24 h after compound treatment. Cells were trypsinized and combined with any floating cells, pelleted, and resuspended in 1 ml PBS. Ice cold ethanol (70%) was added, and samples were incubated at −20° C. until analysis. After fixation the cells were pelleted, resuspended in 500 μl staining solution (50 μg/ml propidium iodide, 0.1 mg/ml RNase A, 0.05% Triton X-100) and incubated for 40 min at 37° C. 3 ml PBS were added; the cells were pelleted again and resuspended in 500 μl PBS. The DNA content was measured with a Becton Dickinson LSRII and analyzed with FlowJo 7.5 software. The cell cycle of compound treated HeLa cells was analyzed by fluorescence activated cell sorting (FIG. 1). […] A similar distribution is given in (−)-1-01 treated cells (FIGS. 1c and 1d); here 9% are in G1 and 38% in G2/M phase (25 μM) respectively; 8% in G1 and 40% in G2/M phase (50 μM). This means that the mitotic index is increased by more than two fold (from 0.16 to 0.38 respectively 0.40), indicating a mitotic arrest after compound treatment.

| Structure (SMILES) | cells in G1 phase | cells in G2/M phase |
| --- | --- | --- |
| COC(=O)Nc1nc2ccc(C(=O)c3cccs3)cc2[nH]1 [nocodazole, reference compound] | 4% | 40% |

Test system: all cell lines but Saos2
Assay: Apo-ONE homogeneous caspase-3/7 assay (apoptosis), summary statement
Type: cell-based
Details: all cell lines but Saos2, 42 h
Description: HeLa human cervical carcinoma cell line, the human breast cancer cell line MCF7, the African green monkey kidney cell line BS-C-1 and the human colorectal carcinoma cell lines HCT116 and SW480 were maintained in Dulbecco's Modified Eagle's medium (DMEM, PAA, Pasching Austria). The colorectal cell line HT29 was cultured in McCoy's 5A medium (PAA, Pasching, Austria). The prostate carcinoma cells PC3 and the osteosarcoma cells Saos2 were cultured in RPMI medium (PAA, Pasching Austria). All media were supplemented with 10% fetal calf serum, L-glutamine, penicillin and streptomycin. All cell lines were maintained at 37° C. in a 5% CO2 humidified atmosphere.
Therefore we measured the caspase-3/7 activity in different cell lines with the Apo-ONE® homogeneous caspase-3/7 assay.
Caspase-3/7 activities were determined using the Apo-ONE® homogeneous caspase-3/7 assay (Promega, Mannheim Germany) according to the manufacturer's protocol. Briefly, cells were plated in quadruplicates in 384-well cell culture plate. After 24 hours cells were exposed for 42 hours to the compounds at different concentrations. Control cells were treated with 0.5% DMSO or staurosporine (STS). Subsequently cells were lysed with a lysis buffer containing the caspase-3/7 substrate Z-DEVD-R110 and were incubated at room temperature until further analysis. The fluorescence was detected with the TECAN Inifinite® M200 plate reader at excitation/emission wavelength 485/520 nm. The blank value was subtracted from each value and the relative caspase-3/7 activity was calculated compared to the DMSO treated cells.
These findings correlate with our results from the cell viability assays for these indoloquinolizine.

| Structure (SMILES) | impact on the apoptosis |
| --- | --- |
| COC(=O)C1=CC(C(=O)c2ccccc2O)=CN2CCc3c([nH]c4ccccc34)C12C(=O)OC (single isomer, unassigned; (+)) [(+)-1-01, Dimethyl-3-(2-hydroxybenzoyl)-6,7,12,12b-tetrahydroindolo[2,3a]quinolizine-1,12b-dicarboxylate] | did not have any impact on the apoptosis |
| COC(=O)C1=CC(C(=O)c2ccccc2O)=CN2CCc3c([nH]c4ccc(OC)cc34)C12C(=O)OC (single isomer, unassigned; (+)) [(+)-1-04, Dimethyl-3-(2-hydroxybenzoyl)-9-methoxy-6,7,12,12b-tetrahydro-indolo[2,3-a]quinolizine-1,12b-dicarboxylate] | did not have any impact on the apoptosis |

Test system: not given
Assay: not given
Details: not given

| Structure (SMILES) | melting point |
| --- | --- |
| COC(=O)C1=CC(C(=O)c2ccccc2O)=CN2CCc3c([nH]c4ccccc34)C12C(=O)OC (centres unmarked) | 258 °C (dec.) |
| CCOC(=O)C1=CC(C(=O)c2ccccc2O)=CN2CCc3c([nH]c4ccccc34)C12C(=O)OCC (centres unmarked) | 209 °C |
| COC(=O)C1=CC(C(=O)c2ccccc2O)=CN2CCc3c([nH]c4ccc(OC)cc34)C12C(=O)OC (centres unmarked) | 163 °C (dec.) |
| COC(=O)C1=CC(C(=O)c2cc(Cl)ccc2O)=CN2CCc3c([nH]c4ccccc34)C12C(=O)OC (centres unmarked) | 232 °C (dec.) |
| COC(=O)C1=CC(C(=O)c2cc(Br)ccc2O)=CN2CCc3c([nH]c4ccccc34)C12C(=O)OC (centres unmarked) | 220 °C (dec.) |
| COC(=O)C1=CC(C(=O)c2cc(C)ccc2O)=CN2CCc3c([nH]c4ccccc34)C12C(=O)OC (centres unmarked) | 197 °C |
| COC(=O)C1=CC(C(=O)c2cc(Cl)cc(Cl)c2O)=CN2CCc3c([nH]c4ccccc34)C12C(=O)OC (centres unmarked) | 238.2 °C (dec.) |
| COC(=O)C1=CC(C(=O)c2cc(Br)cc(Br)c2O)=CN2CCc3c([nH]c4ccccc34)C12C(=O)OC (centres unmarked) | 131 °C |
| COC(=O)C1=CC(C(=O)c2ccccc2OC)=CN2CCc3c([nH]c4ccccc34)C12C(=O)OC (centres unmarked) | 261 °C (dec.) |
| COC(=O)C1=CC(C(=O)c2ccccc2O)=CN2CCc3c([nH]c4ccc(O)cc34)C12C(=O)OC (centres unmarked) | 180 °C (dec.) |
| COC(=O)C1=CC(C(=O)c2ccccc2O)=CN2CCc3c([nH]c4ccc(C)cc34)C12C(=O)OC (centres unmarked) | 175 °C |
| COC(=O)C1=CC(C(=O)c2ccccc2O)=CN2CCc3c([nH]c4ccc(Br)cc34)C12C(=O)OC (centres unmarked) | 182 °C |
| COC(=O)C1=CC(C(=O)c2c(O)cccc2OC)=CN2CCc3c([nH]c4ccccc34)C12C(=O)OC (centres unmarked) | 237 °C (dec.) |
| CCOC(=O)C1=CC(C(=O)c2cc(C)ccc2O)=CN2CCc3c([nH]c4ccccc34)C12C(=O)OCC (centres unmarked) [Compound 1-03, Diethyl-3-(2-hydroxy-5-methylbenzoyl)-6,7,12,12b-tetrahydroindolo-[2,3-a]quinolizine-1,12b-dicarboxylate] | 208 °C |
| COC(=O)C1=CC(C(=O)c2cc(Br)ccc2O)=CN2CCc3c([nH]c4ccc(OC)cc34)C12C(=O)OC (centres unmarked) [Compound 1-05, Dimethyl-3-(5-bromo-2-hydroxybenzoyl)-9-methoxy-6,7,12,12b-tetrahydro-indolo[2,3-a]quinolizine-1,12b-dicarboxylate] | 197 °C (dec.) |
| CCOC(=O)C1=CC(C(=O)c2ccccc2O)=CN2CCc3c([nH]c4ccc(OC)cc34)C12C(=O)OCC (centres unmarked) [Compound 1-13, Diethyl-3-(2-hydroxybenzoyl)-9-methoxy-6,7,12,12b-tetrahydro-indolo[2,3-a]quinolizine-1,12b-dicarboxylate] | 212 °C |
| CCOC(=O)C1=CC(C(=O)c2cc(Br)ccc2O)=CN2CCc3c([nH]c4ccccc34)C12C(=O)OCC (centres unmarked) [Compound 1-14, Diethyl-3-(5-bromo-2-hydroxybenzoyl)-6,7,12,12b-tetrahydro-indolo[2,3-a]quinolizine-1,12b-dicarboxylate] | 215 °C |
| CCOC(=O)C1=CC(C(=O)c2cc(C)ccc2O)=CN2CCc3c([nH]c4ccc(OC)cc34)C12C(=O)OCC (centres unmarked) [Compound 1-16, Diethyl-3-(2-hydroxy-5-methylbenzoyl)-9-methoxy-6,7,12,12b-tetrahydroindolo[2,3-a]quinolizine-1,12b-dicarboxylate] | 228 °C |
| CCOC(=O)C1=CC(C(=O)c2cc(Cl)c(C)cc2O)=CN2CCc3c([nH]c4ccccc34)C12C(=O)OCC (centres unmarked) [Compound 1-18, Diethyl-3-(5-chloro-2-hydroxy-4-methylbenzoyl)-6,7,12,12b-tetrahydroindolo[2,3-a]quinolizine-1,12b-dicarboxylate] | 196 °C |
| CCOC(=O)C1=CC(C(=O)c2cc(Cl)ccc2O)=CN2CCc3c([nH]c4ccccc34)C12C(=O)OCC (centres unmarked) [Compound 1-19, Diethyl-3-(5-chloro-2-hydroxybenzoyl)-6,7,12,12b-tetrahydro-indolo[2,3-a]quinolizine-1,12b-dicarboxylate] | 216 °C |
| CCOC(=O)C1=CC(C(=O)c2cc(Cl)ccc2O)=CN2CCc3c([nH]c4ccc(OC)cc34)C12C(=O)OCC (centres unmarked) [Compound 1-20, Diethyl-3-(5-chloro-2-hydroxybenzoyl)-9-methoxy-6,7,12,12b-tetrahydroindolo[2,3-a]quinolizine-1,12b-dicarboxylate] | 230 °C |
| CCOC(=O)C1=CC(C(=O)c2cc(Br)ccc2O)=CN2CCc3c([nH]c4ccc(OC)cc34)C12C(=O)OCC (centres unmarked) [Compound 1-22, Diethyl-3-(5-bromo-2-hydroxybenzoyl)-9-methoxy-6,7,12,12b-tetrahydroindolo[2,3-a]quinolizine-1,12b-dicarboxylate] | 225 °C |
| COC(=O)C1=CC(C(=O)c2ccc(OCc3ccccc3)c(C)c2O)=CN2CCc3c([nH]c4ccccc34)C12C(=O)OC (centres unmarked) [Compound 1-23, Dimethyl 3-(4-(benzyloxy)-2-hydroxy-3-methylbenzoyl)-6,7,12,12b-tetrahydroindolo[2,3-a]quinolizine-1,12b-dicarboxylate] | 216 °C |
| COC(=O)C1=CC(C(=O)c2ccccc2O)=CN2[C@H](C(=O)OC)Cc3c([nH]c4ccccc34)C12C(=O)OC (stereo partly drawn) [Compound 1-28, (6S)-trimethyl 3-(2-hydroxybenzoyl)-6,7,12,12b-tetrahydroindolo[2,3-a]quinolizine-1,6,12b-tricarboxylate] | 244 °C (dec.) |
| CC(C)(C)OC(=O)C1=CC(C(=O)c2ccccc2O)=CN2CCc3c([nH]c4ccccc34)C12C(=O)OC(C)(C)C (centres unmarked) [Compound 1-54, di-tert-butyl 3-(2-hydroxybenzoyl)-6,7,12,12b-tetrahydroindolo[2,3-a]quinolizine-1,12b-dicarboxylate] | 237 °C (dec.) |
